This note sets out measurements from patent publication US12091425B2 (AMGEN INC., priority 2016, dated 2024).

The structures appear in SMILES notation.

In one assay the target is T1, Mcl-1/Bim interaction, recombinant human Mcl-1 (171-327) (Homo sapiens, UniProt Q07820).
T1 construct: made in house
T1 sequence (Q07820 171-327): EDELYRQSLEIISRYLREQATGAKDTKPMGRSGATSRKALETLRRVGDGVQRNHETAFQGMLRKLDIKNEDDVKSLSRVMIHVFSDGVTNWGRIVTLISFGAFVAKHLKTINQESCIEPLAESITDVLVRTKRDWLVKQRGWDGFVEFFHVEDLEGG
Kind of assay: Cell free Mcl-1: Bim Affinity Assay (Mcl-1 HTRF). It is filed as binding. Particulars: TR-FRET, 0.1 nM Mcl-1 (171-327), 0.05 nM biotin-Bim (51-76). The protocol: Cell free Mcl-1: Bim Affinity Assay (Mcl-1 HTRF)
The inhibition of the Mcl-1/Bim interaction was measured using a time-resolved fluorescence resonance energy transfer (TR-FRET) assay. […] A biotinylated peptide derived from human Bim (residues 51-76) was purchased from CPC Scientific (San Jose, CA). The TR-FRET assay was conducted in a 384-well white OptiPlatem (PerkinElmer, Waltham, MA) in a total volume of 40 μL. […] The reaction plates were further incubated overnight and then were read on an Envision® multimode reader (PerkinElmer). […] The IC50 values of test compounds were determined from duplicate data by analyzing competition curves using a four-parameter sigmoidal model in GraphPad Prism (GraphPad Software, San Diego, CA) or in Genedata Screener® (Genedata, Basel, Switzerland).
For orientation: In TR-FRET formats the signal depends on donor and acceptor labels being close together.
Usually IC50 stands for the concentration needed to halve the response being measured. Regarding `CO[C@@H]1/C=C/CCS(=O)(=O)NC(=O)c2ccc3c(c2)N(C[C@@H]2CC[C@H]21)C[C@@]1(CCCc2cc(Cl)ccc21)CO3` [Example 225, (1S,3′R,6′R,7′R,8′E)-6-chloro-7′-methoxy-3,4-dihydro-2H,14′H-spiro[naphthalene-1,21′-[19]oxa[12]thia[1,13]diazatetracyclo[13.7.2.0^3,6.0^18,23]tetracosa [8,15,17,23]tetraen]-14′-one 12′,12′-dioxide], the IC50 came to 23.1 nM. On the same count and under the same terms, then `CC[C@H]1CCCOC[C@@H]2CC[C@H]2CN2C[C@@]3(CCCc4cc(Cl)ccc43)COc3ccc(cc32)C(=O)NS1(=O)=O` (single isomer, unassigned) [Example 369], with 3.98 nM. Still for that read-out and setting: then `CC[C@@H]1CC/C=C\[C@H](OCC(=O)NC)[C@@H]2CC[C@H]2CN2C[C@@]3(CCCc4cc(Cl)ccc43)COc3ccc(cc32)C(=O)NS1(=O)=O` [Example 964, 2-(((1S,3′R,6′R,7′S,8′Z,12′R)-6-chloro-12′-ethyl-13′,13′-dioxido-15′-oxo-3,4-dihydro-2H-spiro[naphthalene-1,22′-[20]oxa[13]thia[1,14]diazatetracyclo[14.7.2.0^3,6.0^19,24]pentacosa [8,16,18,24]tetraen]-7′-yl)oxy)-N-methylacetamide], with 1.01 nM; and `CO[C@@H]1CCCCS(=O)(=O)NC(=O)c2ccc3c(c2)N(C[C@@H]2CC[C@H]21)C[C@@]1(CCCc2cc(Cl)ccc21)CO3` [Example 226], with 25.6 nM; and `CC[C@@H]1CC/C=C/[C@H](OCC2CCOCC2)[C@@H]2CC[C@H]2CN2C[C@@]3(CCCc4cc(Cl)ccc43)COc3ccc(cc32)C(=O)NS1(=O)=O` [Example 983, (1S,3′R,6′R,7′S,8′E,12′R)-6-chloro-12′-ethyl-7′-(tetrahydro-2H-pyran-4-ylmethoxy)-3,4-dihydro-2H,15′H-spiro[naphthalene-1,22′-[20]oxa[13]thia[1,14]diazatetracyclo[14.7.2.0^3,6.0^19,24]pentacosa [8,16,18,24]tetraen]-15′-one 13′,13′-dioxide], with 1.23 nM. As for `O=C1NS(=O)(=O)[C@H](C(F)(F)F)CCCC[C@H](O)[C@@H]2CC[C@H]2CN2C[C@@]3(CCCc4cc(Cl)ccc43)COc3ccc1cc32` (single isomer, unassigned) [Example 432], the IC50 came to 0.996 nM. The same measure, in the same setting: for `CCN1CC/C=C\[C@H](O)[C@@H]2CC[C@H]2CN2C[C@@]3(CCCc4cc(Cl)ccc43)COc3ccc(cc32)C(=O)NS1(=O)=O` (single isomer, unassigned) [Example 30] the value was 1.92 nM.

The same assay, now with this note: cell free Mcl-1:Bim TR-FRET, recombinant human Mcl-1 (171-327).
With `O=C1NS(=O)(=O)CCOCC[C@H](O)[C@@H]2CC[C@H]2CN2C[C@@]3(CCCc4cc(Cl)ccc43)COc3ccc1cc32` [Example 779, (3′R,6′R,7S,22S)-6′-chloro-7-hydroxy-3′,4′-dihydro-2′H,15H-spiro[10,20-dioxa-13-thia-1,14-diazatetracyclo[14.7.2.0^3,6.0^19,24]pentacosa-16,18,24-triene-22, 1′-naphthalen]-15-one-13, 13-dioxide or (3′R,6′R,7R,22S)-6′-chloro-7-hydroxy-3′,4′-dihydro-2′H,15H-spiro[10,20-dioxa-13-thia-1,14-diazatetracyclo[14.7.2.0^3,6.0^19,24]pentacosa-16,18,24-triene-22, 1′-naphthalen]-15-one-13, 13-dioxide], the IC50 amounted to 5.55 nM. Same read-out and setting: then `O=C1NS(=O)(=O)CCOCCC[C@@H]2CC[C@H]2CN2C[C@@]3(CCCc4cc(Cl)ccc43)COc3ccc1cc32` (single isomer, unassigned) [Example 815], with 1.26 nM; and `CC(C)[C@@H]1CCCC[C@H](O)[C@@H]2CC[C@H]2CN2C[C@@]3(CCCc4cc(Cl)ccc43)COc3ccc(cc32)C(=O)NS1(=O)=O` (single isomer, unassigned) [Example 752], with 4.39 nM; and `O=C1NS(=O)(=O)[C@@H](CO)CCCC[C@H](O)[C@@H]2CC[C@H]2CN2C[C@@]3(CCCc4cc(Cl)ccc43)COc3ccc1cc32` (single isomer, unassigned) [Example 713], with 1.71 nM. Still for that read-out and setting: then `O=C1NS(=O)(=O)C[C@H](CO)CCC[C@H](O)[C@@H]2CC[C@H]2CN2C[C@@]3(CCCc4cc(Cl)ccc43)COc3ccc1cc32` (single isomer, unassigned) [Example 708], with 1.12 nM. Same read-out and setting: for `O=C1NS(=O)(=O)C/C=C/C[C@H](O)[C@@H]2CC[C@H]2CN2C[C@@]3(CCCc4cc(Cl)ccc43)COc3ccc1cc32` [Example 771, (1S,3′R,6′R,7′S,9′E)-6-chloro-7′-hydroxy-3,4-dihydro-2H,14′H-spiro[naphthalene-1,21′-[19]oxa[12]thia[1,13]diazatetracyclo [13.7.2.0^3,6.0^18,23]tetracosa[9,15,17,23]tetraen]-14′-one 12′,12′-dioxide] the value was 4.09 nM; for `O=C1NS(=O)(=O)CCOC[C@@H](O)C[C@H]2CC[C@H]2CN2C[C@@]3(CCCc4cc(Cl)ccc43)COc3ccc1cc32` (single isomer, unassigned) [Example 780, (3R,6R,8S,22S)-6′-chloro-8-hydroxy-3′,4′-dihydro-2′H,15H-spiro[10,20-dioxa-13-thia-1,14-diazatetracyclo[14.7.2.0^3,6.0^19,24]pentacosa-16,18,24-triene-22, 1′-naphthalen]-15-one-13, 13-dioxide or (3R,6R,8R,22S)-6′-chloro-8-hydroxy-3′,4′-dihydro-2′H,15H-spiro[10,20-dioxa-13-thia-1,14-diazatetracyclo[14.7.2.0^3,6.0^19,24]pentacosa-16,18,24-triene-22, 1′-naphthalen]-15-one-13, 13-dioxide], 4.84 nM; for `O=C1NS(=O)(=O)CCC=CC(O)C2CCC2CN2CC3(CCCc4cc(Cl)ccc43)COc3ccc1cc32` (mixture of isomers) [Example 776, (1S,3′R,6′R,7′S,8′E)-6-chloro-7′-hydroxy-3,4-dihydro-2H,14′H-spiro[naphthalene-1,21′-[19]oxa[12]thia[1,13]diazatetracyclo [13.7.2.0^3,6.0^18,23]tetracosa[8,15,17,23]tetraen]-14′-one 12′,12′-dioxide and (1S,3′R,6′R,7′S,8′Z)-6-chloro-7′-hydroxy-3,4-dihydro-2H,14′H-spiro[naphthalene-1,21′-[19]oxa[12]thia[1,13]diazatetracyclo[13.7.2.0^3,6.0^18,23]tetracosa[8,15,17,23]tetraen]-14′-one 12′,12′-dioxide], 2.71 nM. For `O=C1NS(=O)(=O)CC/C=C/C[C@@H](O)[C@@H]2CC[C@H]2CN2C[C@@]3(CCCc4cc(Cl)ccc43)COc3ccc1cc32` (single isomer, unassigned) [Example 844], the IC50 amounted to 11.1 nM.

As to `O=C(CO)N[C@@H]1CCCCCS(=O)(=O)NC(=O)c2ccc3c(c2)N(C[C@@H]2CC[C@H]21)C[C@@]1(CCCc2cc(Cl)ccc21)CO3` (single isomer, unassigned) [Example 939], the IC50 came to 6.67 nM.

With `O=C1NS(=O)(=O)CCC/C=C/[C@@H]2CC[C@H]2CN2C[C@@]3(CCCc4cc(Cl)ccc43)COc3ccc1cc32` [Example 829, (1S,3′R,6′S, 7′E)-6-chloro-3,4-dihydro-2H,14′H-spiro[naphthalene-1,21′-[19]oxa[12]thia[1,13]diazatetracyclo[13.7.2.0^3,6.0^18,23]tetracosa [7,15,17,23]tetraen]-14′-one 12′,12′-dioxide], the IC50 was 9.87 nM.
